In patent US20250019657A1, “Generation of Adipocytes from Bovine Embryonic Stem Cell Lines” (Wisconsin Alumni Research Foundation, priority 2023, published 2025):

Legend:
bESCs [1] = test: bESC growth in Medium 1 with alternative Wnt inhibitors (Medium 1a/1b) on vitronectin, feeder-free; type: cell-based, bovine
Experimental: 1) Wnt-inhibitors (Medium la and Medium 1b): In prior studies, mTeSR Plus medium supplemented with 20 ng/ml human FGF2 and 2.5 μM IWR1 was used for bESC cultures (Saito et al. 1992; Stice et al. 1996). […] Nat Chem Biol 11, 973-980 (2015); and Mallinger et al., Discovery of potent, orally bioavailable, small-molecule inhibitors of WNT signaling from a cell-based pathway screen.
bESC growth in Medium 1 was tested with concentrations of 1 nM, 5 nM, or 10 nM iCRT3 (Medium 1a).
In another set of experiments, bESC growth in Medium 1 was tested with concentrations of 1 nM, 5 nM, 75 nM, or 150 nM CCT251545 (Medium 1b).
In Method 1, bESC colonies growing on Vitronectin were passaged by using TrypLe. Following medium aspiration 0.5-0.8 mL of TrypLE was added to each well of 6 well plate. Cells incubated for 3.5 min at 37.2° C. Then TrypLE has been carefully removed by aspiration and 1-1.2 mL of cold (+1-+4° C.) TeSRr medium was added, cells were suspended by pipette filtered via strainer (70 mkM), counted and an aliquot of 70,000 to 100,000 cell/well for 6 wells plate was taken and cells centrifuged at 100 g for 5 minutes. The cell pellet was resuspended in 9 mL growth medium and seeded on coated by vitronectin 6-well plate.

bESCs [2] = test: bESC growth in mTeSR medium with DAPT and IWR-1 (Medium 3 / Method 3); type: cell-based, bovine
Experimental: To test whether DAPT can be used for bESC cultures, the growth of bESC was tested in mTeSR medium with different concentrations of DAPT and IWR-1. […] Addition of IWR-1 to DAPT had no effect on bESCs. (FIG. 3, Table 6; bESC Medium 3/Method 3). mTeSR with 10 μM DAPT alone supported bESC cultures for more than 7 passages.
In Method 3, bESC were cultured in bESC medium 3 composed of TeSR Plus (WiCell) supplemented with […] of gamma γ-secretase inhibitor DAPT on collagen or a vitronectin-coated 6-well plate and were passage using PBS-EDTA. Following aspiration of bESC growth media, 0.7-1.2 mL of PBS-EDTA solution was added to each well of 6 well plate. After incubation 5 to 6 min at +37° C., PBS-EDTA was carefully removed by aspiration and 1-1.2 mL of cold (+1-+4° C.) TeSR medium was added, cells were suspended by pipette filtered via strainer (70 mkM), counted and an aliquot of 100,000 to 150,000 cell/well for 6 wells plate was taken and cells were centrifuged at 100 g for 5 minutes. Cell pellets were resuspended in 9 mL growth medium and plated on a collagen or vitronectin coated 6-well plate. Cells grew for 5-7 days until they formed large colonies. PBS-EDTA solution was prepared as described above.

bESCs [3] = test: Matrix coating supporting expansion of bESCs in feeder-free conditions; type: cell-based, bovine; details: for bESC growth on pre-coated plate (FIG. 2): Method 1 bESCs, medium with 2.5 μM IWR-1 (bESC medium 1)
Source text: After co-culture with MEFs, bESCs were collected using TrypLE treatment and cultured in 6-well plastic plates in feeder-free conditions for expansion. […] However, collagen pre-coated plates can be used to support bESC growth in bESC medium 2.
To establish feeder-free conditions for bESCs, bESCs were collected from coculture with MEFs using TrypLE treatment and transferred into 6-well plastic plates precoated Vitronectin XF, collagen, or Matrigel®.
Vitronectin Coating Preparation: A frozen vial of Vitronectin XF (2 mL) from Stem Cell Technology (Cat #07180) was thawed and mixed with 50 mL of DPBS and distributed into 6 of 6-well plates (˜1.4 mL/well) sealed with Parafilm and kept wrapped in foil at +4° C. for not more than 2 weeks. Before use, the plate was kept at +37° C. for at least 1 hr. Immediately after aspiration excess of liquid, bESCs in culture medium were added.
Collagen Coating Preparation: Collagen (Sigma, Cat #5162-1G) was dissolved in distilled water and sterilized by filtration using 0.22 um filter. Collagen solution aliquoted into 70 μL PCR tubes and kept at −80° C. before use. For coating wells, the content of tube was transferred into 50 mL DPBS, carefully mixed, and distributed into 6 of 6 wells plate, approximately 1.3-1.4 mL/well. Plates sealed with Parafilm and kept at RT not more than 2 wecks.
Matrigel® Coating Preparation: Frozen stock (˜0.5 mL) of Matrigel® needs was thaw on ice and diluted in 50 mL of cold DPBS (+4° C.). Approximately 1.2-1.3 mL (9 μg/cm^2) of diluted Matrigel® solution was added to each well. After 1 hour incubation at +37° C. excess Matrigel® was removed and wells washed with warm DPBS.

[4] = tested on: bovine embryo derived blastocysts; test: Generation of bESC lines from blastocysts on different coatings; type: cell-based; details: Method 1
Experimental: bESCs were generated from IVM/IVF bovine embryo derived blastocysts on 6th to 7th days post-fertilization. Briefly, bovine embryos were obtained from an outside source and cultured in TeSR Plus medium supplemented with 15% fetal bovine serum from 24 to 72 hours to get an expanded blastocyst stage. After that zona pellucida was removed by treating embryos with pronase. Embryos with stripped zona pellucida were plated on irradiated MEFs (obtained from WICell) in a 4-well IVF plate and cultured according to Method 1 or Method 2. Following expansion of inner cell mass after culture for 2-3 weeks on MEFs, cells were disaggregated by TrypLE, and bESC were generated from individual blastocysts by two Methods (Method 1 or Method 2) to maximize efficiency.
To determine if feeder-free conditions were suitable for maximizing generation of bESCs from inner cell mass, individual blastocysts were placed into culture plates according to Method 1 or Method 2 with coating conditions modified as shown in Table 1. Coating conditions using MEF feeder cells or vitronectin (feeder-free) were tested. In the first set, 11 bovine embryos were used to establish 4 bESC lines, 3 of which were differentiated and tossed after passage 5-7. Only one cell line remained undifferentiated and maintained expression of bESC pluripotency factors Oct4 and Sox2. […]

[5] = 1 nM inhibitor in Medium 1, vitronectin
[6] = feeder-free, bESC medium 1 or 2

## Cn1cc(-c2ccc(-c3cncc(Cl)c3N3CCC4(CCNC4=O)CC3)cc2)cn1 [CCT251545]
bESCs [1]; 1 nM inhibitor in Medium 1
  bESC growth on vitronectin: did not support bESC growth
bESCs [1]; [5]
  passages after which cells died: 2-3 passages
bESCs [1]; 5 nM inhibitor in Medium 1
  bESC growth on vitronectin: did not support bESC growth
bESCs [1]; 75 nM inhibitor in Medium 1
  bESC growth on vitronectin: did not support bESC growth
bESCs [1]; 150 nM inhibitor in Medium 1
  bESC growth with typical morphology and expression of Sox2 and Oct4: supported bESC growth
  passages of supported bESC growth: more than 7 passages

## C[C@H](NC(=O)Cc1cc(F)cc(F)c1)C(=O)NC(C(=O)OC(C)(C)C)c1ccccc1 (some centres unmarked) [DAPT]
bESCs [2]; DAPT alone at 5-10 μM in mTeSR medium
  growth of bESCs: sufficient to support growth of bESCs
bESCs [2]; mTeSR with 10 μM DAPT alone
  passages of supported bESC cultures: more than 7 passages

## O=C(Nc1cccc2cccnc12)c1ccc(N2C(=O)[C@@H]3[C@H](C2=O)[C@@H]2C=C[C@H]3C2)cc1 [IWR-1]
bESCs [2]; IWR-1 added to DAPT in mTeSR medium
  effect on bESCs of addition to DAPT: no effect

## CCc1ccc(-c2nc(CSCC(=O)NCCc3ccccc3)c(C)o2)cc1 [iCRT3]
bESCs [1]; 1 nM inhibitor in Medium 1
  bESC growth on vitronectin: did not support bESC growth
bESCs [1]; [5]
  passages after which cells died: 1-2 passages
bESCs [1]; 5 nM inhibitor in Medium 1
  bESC growth on vitronectin: did not support bESC growth
bESCs [1]; 5 nM inhibitor in Medium 1, vitronectin
  passages after which cells died: 2-4 passages
bESCs [1]; 10 nM inhibitor in Medium 1
  bESC growth with typical morphology and expression of Sox2 and Oct4: supported bESC growth
  passages of supported bESC growth: more than 10 passages

## collagen
bESCs [3]
  bESC growth on pre-coated plate (FIG. 2): supports bESC cultures
bESCs [3]; bESC medium 1
  bESC adherence to matrix: very lightly and weak
bESCs [3]; bESC medium 2
  bESC colony formation and growth on matrix: able to form colonies and grow
bESCs [3]; [6]
  bESC morphology on matrix: maintained a typical bESC morphology

## gelatin
bESCs [3]
  bESC growth on pre-coated plate (FIG. 2): do not support the growth of bESCs
bESCs [3]; [6]
  bESC attachment to pre-coated plates: attached
  bESC growth on pre-coated plates: did not grow

B1: vitronectin + Cover Glass on the top: vitronectin coating with cover glass on top (protein, UniProt P04004 20-478, looked up)
Vitronectin: DQESCKGRCTEGFNVDKKCQCDELCSYYQSCCTDYTAECKPQVTRGDVFTMPEDEYTVYDDGEEKNNATVHEQVGGPSLTSDLQAQSKGNPEQTPVLKPEEEAPAPEVGASKPEGIDSRPETLHPGRPQPPAEEELCSGKPFDAFTDLKNGSLFAFRGQYCYELDEKAVRPGYPKLIRDVWGIEGPIDAAFTRINCQGKTYLFKGSQYWRFEDGVLDPDYPRNISDGFDGIPDNVDAALALPAHSYSGRERVYFFKGKQYWEYQFQHQPSQEECEGSSLSAVFEHFAMMQRDSWEDIFELLFWGRTSAGTRQPQFISRDWHGVPGQVDAAMAGRIYISGMAPRPSLAKKQRFRHRNRKGYRSQRGHSRGRNQNSRRPSRATWLSLFSSEESNLGANNYDDYRMDWLVPATCEPIQSVFFFSGDKYYRVNLRTRRVDTVDPPYPRSIAQYWLGCPAPGHL
[4]
  Number of bESC lines generated: 0
